Results: patent publication US4515891A, “Process for the production of disaccharide-tripeptide and disaccharide-tetrapeptide” (priority 1982, dated 1985)

Columns and labels:
[1] = tested on: delayed-type hypersensitivity to ovalbumin; assay: Immunostimulant (immunoadjuvant) activity: corneal response; assay type: in vivo, Hartley strain guinea pigs; conditions: grade 0 to 3.0; guinea pigs sensitized with 1 mg ovalbumin + 100 μg test compound in water-in-oil emulsion; intracorneal ovalbumin 2 weeks after sensitization, read after 48 hours
Procedure: (§1) The animals sensitized were prepared as follows. Groups of 5 female Hartley strain guinea pigs, weighing 200 to 300 g, were injected in the left hind food-pad with 0.2 ml of a water-in-oil emulsion containing 1 mg of crystalline ovalbumin as antigen and 100 μg of test compound. The water-in-oil emulsion consisted of Drakeol 6VR (Pennsylvania Refining Co., U.S.A.), Arlacel A (Atlas Chemical Industries Inc., U.S.A.) and 1/75M phosphate-buffered physiological saline (pH 7.0) in a ratio of 4:1:5 by volume. Control guinea pigs were injected with a water-in-oil emulsion of similar composition containing the antigen but not test compound (Freund's incomplete adjuvant).
To test for the induction of delayed-type hypersensitivity to ovalbumin, that is, the enhancement of cell-mediated immunity, 2 weeks after the sensitization the guinea pigs were given an intracorneal injection of ovalbumin solution (20 mg/ml saline) to make a transient disc of opacity of approximately 5 mm in diameter. The eyes were examined after 48 hours and the extent and degree of corneal opacity were recorded. The reactions were graded from 3.0, for a strong reaction where the whole cornea was thickened, opaque and grayish-white, to 1.0, where slight opacity was observed. When no visible difference from the uninjected eye was detected, the reaction was graded as 0.

[2] = tested on: delayed-type hypersensitivity to ovalbumin; assay: Immunostimulant (immunoadjuvant) activity: skin reaction; assay type: in vivo, Hartley strain guinea pigs; conditions: extent of induration; guinea pigs sensitized with 1 mg ovalbumin + 100 μg test compound; intradermal ovalbumin 3 weeks after sensitization, measured after 48 hours
Procedure: as §1
To test for the induction of delayed-type hypersensitivity to ovalbumin, 3 weeks after the sensitization the guinea pigs were given an intradermal injection of ovalbumin solution (0.1 mg/0.1 ml saline) at one hind foot-pad shaved with a clipper. The size of induration was measured after 48 hours. The extent of induration was calculated by the formula as described in Biken Journal, 20, pages 95-103 (1977).

antiovalbumin antibody = assay: Immunostimulant (immunoadjuvant) activity: production of humoral antibody; assay type: in vivo, Hartley strain guinea pigs; conditions: guinea pigs bled 4 weeks after sensitization with 1 mg ovalbumin + 100 μg test compound
Procedure: as §1
To test for the enhancement of production of humoral antibody, 4 weeks after the sensitization the guinea pigs were bled by cardiac puncture. The levels of antiovalbumin antibody nitrogen were measured quantitatively using a spectrophotometric technique.

[3] = tested on: Pseudomonas aeruginosa No. 12; assay: Enhancement of nonspecific resistance to bacterial infections; assay type: in vivo, Std-ddY strain mice; conditions: survivors 7 days after infection, mice
Procedure: Male Std-ddY strain mice weighing about 23 g were used. Test compounds were dissolved in physiological saline and intravenously administered to the animals 72, 48 and 24 hours before the intraperitoneal infection with Pseudomonas aeruginosa No. 12 (inoculum size: 2×10^6 cells/mouse). The number of survivors were recorded 7 days after the infection.

[4] = Solubility (physicochemical properties)
[5] = dose 0.0125 mg/kg i.v. 72, 48 and 24 hours before i.p. infection
[6] = dose 0.05 mg/kg i.v. 72, 48 and 24 hours before i.p. infection
[7] = dose 0.2 mg/kg i.v. 72, 48 and 24 hours before i.p. infection
[8] = dose 0.8 mg/kg i.v. 72, 48 and 24 hours before i.p. infection
[9] = dose 3.1 mg/kg i.v. 72, 48 and 24 hours before i.p. infection
[10] = dose 12.5 mg/kg i.v. 72, 48 and 24 hours before i.p. infection

Compound	Corneal response [1]	Skin reaction [2]	Antibody nitrogen (antiovalbumin antibody)	Number of survivors/total number of test animals ([3]; dose 0.0031 mg/kg i.v. 72, 48 and 24 hours before i.p. infection)	Number of survivors/total number of test animals [3, 5]	Number of survivors/total number of test animals [3, 6]	Number of survivors/total number of test animals [3, 7]	Number of survivors/total number of test animals [3, 8]	Number of survivors/total number of test animals [3, 9]	Number of survivors/total number of test animals [3, 10]	Solubility ([4]; in diethyl ether)	Solubility ([4]; in water, 50% C1-3 alcohol)
CC(=O)N[C@H]1[C@H](O[C@H]2[C@H](O[C@H](C)C(=O)N[C@@H](C)C(=O)N[C@H](CCC(=O)N[C@@H](CCC[C@@H](N)C(N)=O)C(=O)O)C(N)=O)[C@@H](NC(C)=O)C(O)O[C@@H]2CO)O[C@H](CO)[C@@H](O)[C@@H]1O (stereo partly drawn) [GMP3 -A, β-N-acetylglucosaminyl-(1→4)-N-acetylmuramyl-L-alanyl-D-isoglu taminyl-(L)-meso-2,6-diaminopimelic acid-(D)-amide]	2.2	2.5	350 ± 50 µg/mL	7/16	9/16	9/16	8/16	10/16	14/16	16/16	insoluble	Soluble
CC(=O)N[C@H]1[C@H](O[C@H]2[C@H](O[C@H](C)C(=O)N[C@@H](C)C(=O)N[C@H](CCC(=O)N[C@@H](CCC[C@@H](N)C(N)=O)C(=O)N[C@H](C)C(=O)O)C(N)=O)[C@@H](NC(C)=O)C(O)O[C@@H]2CO)O[C@H](CO)[C@@H](O)[C@@H]1O (stereo partly drawn) [GMP4 -A, β-N-acetylglucosaminyl-(1→4)-N-acetylmuramyl-L-alanyl-D-isoglu taminyl-(L)-meso-2,6-diaminopimelic acid-(D)-amide-(L)-D-alanine]	2.0	3.7	399 ± 90 µg/mL		6/16	6/16	4/16	7/16	7/16	16/16	insoluble	Soluble
β-N-acetylglucosaminyl-(1→4)-N,6-O-diacetylmuramyl-L-alanyl-D- isoglutaminyl-(L)-meso-2,6-diaminopimelic acid-(D)-amide-(L)-D-alanine [GMP4 -B]	2.2	3.7	216 ± 57 µg/mL		4/16	4/16	6/16	9/16	10/16	16/16		
β-N-acetylglucosaminyl-(1→4)-N,6O-diacetylmuramyl-L-alanyl-D-i soglutaminyl-(L)-meso-2,6-diaminopimelic acid-(D)-amide [GMP3 -B]	2.4	3.5	250 ± 40 µg/mL		5/16	7/16	9/16	10/16	12/16	16/16	insoluble	Soluble
